Assay results as given in the supplement of paper PMC10307832.

Assays:
Assay in all cases: relative viability (nuclei count vs DMSO), 5 days (fraction); higher = more cells survive
EHT 1864 + Olaparib = compound: C1COCCN1CC2=CC(=O)C(=CO2)OCCCCCSC3=C4C=CC(=CC4=NC=C3)C(F)(F)F [EHT 1864] + O=C(c1cc(Cc2n[nH]c(=O)c3ccccc23)ccc1F)N1CCN(C(=O)C2CC2)CC1 [Olaparib] (partner 8 µM)
Method in brief: (§1)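 Lung cancer cell lines in 1536-well plates got either a single drug or a fixed anchor-drug dose together with five library-drug doses (not always all listed) in √10 steps, by pin tool, on the day after seeding. Nuclei were counted after 5 days, and relative viability is the treated-to-vehicle ratio of nuclei counts. Values are medians of duplicate plates.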

EHT 1864 + Decitabine = compound: C1COCCN1CC2=CC(=O)C(=CO2)OCCCCCSC3=C4C=CC(=CC4=NC=C3)C(F)(F)F [EHT 1864] + Nc1ncn([C@H]2C[C@H](O)[C@@H](CO)O2)c(=O)n1 [Decitabine] (partner 2 µM)
Method in brief: as §1

EHT 1864 + Luminespib = compound: C1COCCN1CC2=CC(=O)C(=CO2)OCCCCCSC3=C4C=CC(=CC4=NC=C3)C(F)(F)F [EHT 1864] + CCNC(=O)c1noc(-c2cc(C(C)C)c(O)cc2O)c1-c1ccc(CN2CCOCC2)cc1 [Luminespib] (partner 0.01 µM)
Method in brief: as §1

EHT 1864 + Lapatinib = compound: C1COCCN1CC2=CC(=O)C(=CO2)OCCCCCSC3=C4C=CC(=CC4=NC=C3)C(F)(F)F [EHT 1864] + CS(=O)(=O)CCNCc1ccc(-c2ccc3ncnc(Nc4ccc(OCc5cccc(F)c5)c(Cl)c4)c3c2)o1 [Lapatinib] (partner 2 µM)
Method in brief: as §1

Cell Line | relative viability (EHT 1864 + Olaparib; first compound 0.04 µM) | relative viability (EHT 1864 + Olaparib; first compound 0.4 µM) | relative viability (EHT 1864 + Olaparib; first compound 1.265 µM) | relative viability (EHT 1864 + Olaparib; first compound 4 µM) | relative viability (EHT 1864 + Decitabine; first compound 0.04 µM) | relative viability (EHT 1864 + Decitabine; first compound 0.4 µM) | relative viability (EHT 1864 + Decitabine; first compound 1.265 µM) | relative viability (EHT 1864 + Decitabine; first compound 4 µM) | relative viability (EHT 1864 + Luminespib; first compound 0.04 µM) | relative viability (EHT 1864 + Luminespib; first compound 0.4 µM) | relative viability (EHT 1864 + Luminespib; first compound 1.265 µM) | relative viability (EHT 1864 + Luminespib; first compound 4 µM) | relative viability (EHT 1864 + Lapatinib; first compound 0.04 µM) | relative viability (EHT 1864 + Lapatinib; first compound 0.1265 µM) | relative viability (EHT 1864 + Lapatinib; first compound 0.4 µM) | relative viability (EHT 1864 + Lapatinib; first compound 1.265 µM) | relative viability (EHT 1864 + Lapatinib; first compound 4 µM) | relative viability (EHT 1864 + Olaparib; first compound 0.1265 µM) | relative viability (EHT 1864 + Decitabine; first compound 0.1265 µM) | relative viability (EHT 1864 + Luminespib; first compound 0.1265 µM)
NCI-H1993 | 1.17 | 0.971 | 0.966 | 1.05 | 0.552 | 0.598 | 0.645 | 0.57 | 0.737 | 0.813 | 0.865 | 0.795 | 0.918 | 0.812 | 0.806 | 0.864 | 0.858 | – | – | –
SK-MES-1 | 0.768 | 0.775 | 0.737 | 0.698 | 0.365 | 0.377 | 0.448 | 0.41 | 0.596 | 0.748 | 0.726 | 0.798 | 0.469 | 0.48 | 0.517 | 0.439 | 0.443 | 0.765 | 0.398 | 0.64
NCI-H1915 | 0.287 | 0.251 | 0.257 | 0.257 | 0.259 | 0.265 | 0.26 | 0.265 | 0.8 | 0.733 | 0.577 | 0.791 | 1.03 | – | 0.993 | 0.937 | 0.902 | – | – | –
RERF-LC-KJ | 0.902 | 0.849 | 0.913 | 0.76 | 0.588 | 0.61 | 0.694 | 0.576 | 1.34 | 1.17 | 1.29 | 1.06 | 0.916 | 0.913 | 0.925 | 0.798 | 0.854 | 0.86 | 0.691 | 1.02
LOU-NH91 | 0.917 | 0.911 | 0.949 | 0.885 | 0.793 | 0.842 | 0.804 | 0.754 | 0.345 | 0.342 | 0.294 | 0.32 | 0.769 | 0.746 | 0.802 | 0.81 | 0.797 | 0.858 | 0.754 | 0.345
NCI-H2347 | 0.624 | 0.53 | 0.541 | 0.402 | 0.571 | 0.675 | 0.64 | 0.559 | 0.859 | 0.401 | – | 0.745 | 0.961 | 0.638 | 0.814 | 0.793 | 1.12 | 0.452 | 0.488 | 0.47
NCI-H2126 | 0.916 | 0.887 | 0.882 | 0.915 | 0.652 | 0.547 | 0.62 | 0.566 | 0.796 | 0.906 | 0.879 | 0.866 | 0.779 | 0.723 | 0.759 | 0.798 | 0.697 | 0.926 | 0.572 | 0.902
HCC-827 | 0.79 | 0.625 | 0.652 | 0.633 | 0.332 | 0.319 | 0.399 | 0.317 | 0.517 | 0.465 | 0.487 | 0.588 | 0.233 | 0.204 | 0.219 | 0.164 | 0.191 | 0.641 | 0.291 | 0.427
NCI-H3122 | 0.556 | 0.627 | 0.596 | 0.612 | 0.373 | 0.42 | 0.432 | 0.339 | 0.102 | 0.089 | 0.101 | 0.102 | 0.976 | 0.825 | 1.03 | 1.08 | 1 | 0.58 | 0.423 | 0.0742
HOP-62 | 0.448 | 0.435 | 0.438 | 0.453 | 0.225 | 0.202 | 0.241 | 0.246 | 0.932 | 0.765 | 0.798 | 0.982 | 1.07 | – | 1.01 | 1.09 | 1.18 | – | – | –
HCC-44 | 1.04 | 1.01 | 0.92 | 1.02 | 0.951 | 0.914 | 0.981 | 0.987 | 1.04 | 0.924 | 1.02 | 1.33 | 1.04 | 0.822 | 0.955 | 1.05 | 0.965 | 0.896 | 0.797 | 0.906
